# Experimental data published in patent US11458189B2, “Cytoprotective drugs” (BALMES TRANSPLANTATION, priority 2017, dated 2022).
# System: Sprague Dawley rats
# Test: Survival in acute renal failure model (unilateral renal ischemia-reperfusion with contralateral nephrectomy)
# Assay type: in vivo, rat
# Details: Allopurinol 3 mg/kg single iv injection 60 min before ischemia; up to 7 days after reperfusion; control group 29%
# Protocol: The protocol is similar to the one described by Narayan P et al, Am J Physiol Renal Physiol, 311(2):F352-61, 2016 and was approved by an ethics committee. In summary, general anesthesia is induced in male Sprague Dawley rats (250-300 g) using sodium pentobarbital (60 mg/kg, ip) instead of ketamine/xylazine in the protocol described by Narayan P et al, Am J Physiol Renal Physiol, 311 (2): F352-61, 2016. A skin incision is made on the dorsal surface and the left kidney is exposed by incisions on the flank. The left renal pedicle is then isolated and clamped for 60 minutes using atraumatic vascular clamps. The kidneys are replaced in the abdominal cavity to maintain temperature and the incision is covered with gauze soaked in 0.9% saline. After the ischemia time (60 minutes), the clamps are released to begin reperfusion. Reperfusion is monitored (kidney color change) for 1 to 2 minutes and physiological saline (1 mL) is administered to prevent dehydration. Next, a right kidney nephrectomy is performed and the incisions are closed with sutures. The animals are kept at approximately 37° C. using a thermoregulated system during the operation. Buprenorphine (0.2 mg/kg sc) is administered before the animals are returned to their cages and once a day until 4 days after reperfusion. […]
# The compounds Micafungin (0.25 mg/kg), Anidulafungin (0.35 mg/kg) or the combination of the compounds Micafungin (0.25 mg/kg) and Allopurinol (3 mg/kg) are administered solubilized in physiological saline as a single intravenous injection into the tail vein 60 (±15) minutes before the onset of ischemia. The volume of administration of the compounds is determined on the basis of the body weight (2 mL/kg) of each animal. […]
# For each experiment the curve of the number of surviving animals versus the number of days post-ischemia-reperfusion (Kaplan-Meier curve) is shown. The x-axis is graduated from the first day =0 to the seventh day =6 The y-axis is graduated from 0% to 100% of the initial population of the analyzed group. […]
smiles,measurement,value
Oc1ncnc2[nH]ncc12 [Allopurinol],Surviving animals at end of Kaplan-Meier curve (% of initial population of the group),63%
